From a melting point compilation (Tetko et al.; mined from patent text by program, amines drawn as free bases though some values may be those of a salt)

| SMILES | melting point |
| --- | --- |
| C=C(C)N(c1c(C)cccc1C)S(C)(=O)=O | 80 to 81 °C |
| O=C(O)C1C2CCC(=O)C21 (stereo unspecified) | 110 to 115 °C |
| COc1ccc(C(=O)Nc2ccc(Cl)c(Cl)c2)cc1NC(=S)Nc1cc(Cl)cc(Cl)c1 | 189 to 191 °C |
| CC(C)c1ccc(N(Cc2cnn(CCN(C)C)c2)C(=O)C2CCCc3c(O)cccc32)cc1 (stereo unspecified) | 92 °C |
| COc1ccccc1C1=C(C#N)C(c2ccccc2[N+](=O)[O-])c2c[nH]nc2N1 (stereo unspecified) | 207 °C |
| O=Cc1c(O)cccc1[N+](=O)[O-] | 52 to 53 °C |
| Cc1cc2oc(N(N)CCC#N)nc2c(C)c1C | 143 to 144 °C |
| O=C1N(Cc2ccc(Cl)s2)c2cccc(-c3ccoc3)c2C12COc1cc3c(cc12)OCO3 (stereo unspecified) | 166 to 168 °C |
| CCc1n[nH]c2c1nc(-c1ccccc1)c1ccccc12 | 250 to 251 °C |
| N#Cc1ccc(OCc2cnsc2)cc1F | 102 to 105 °C |
| OCCn1c(NC2CCNCC2)nc2cccnc21 | 157 °C |
| O=[N+]([O-])CS(=O)(=O)c1ccccc1Br | 74 to 76 °C |
| O=C1C(=O)N(CCN2CCN(C(c3ccccc3)c3ccccc3)CC2)c2ccccc21 | 145 to 148 °C |
| Nc1nc(-c2ccccc2)nc2nc(-c3ccco3)nn12 | > 300 °C |
| Cc1cc(C#N)cc(C(=O)NC(C)C2CC2)c1NC(=O)c1cc(Br)nn1-c1ncccc1Cl (stereo unspecified) | 244 to 245 °C |
| O=C(O)c1ccc(OCCCCCCc2ccc3cc(O)c(O)cc3c2)cc1 | 160 to 162 °C |
| CCn1cc(C(=O)O)c(=O)c2cc(F)c(N3CCOC(CN(C)C)C3)c(F)c21 (stereo unspecified) | 185 to 188 °C |
| CN1CCN(c2cccc3c2C[C@H](NC(=O)c2ccc(-c4ccc(O)cc4)cc2)CC3)CC1 | 261 to 262 °C |
| CCOCCOC(=O)C(=O)Nc1nc(-c2cc3ccc(O)cc3oc2=O)cs1 | 217 to 218 °C |
| Cc1ccc2oc(NC(CC3CCCCC3)c3ccccn3)nc2c1 (stereo unspecified) | 80 to 86 °C |
| O=C(NCCO)c1cccc(-c2ccnc3cc(Cc4cccc(C(F)(F)F)c4)oc23)c1 | 158 to 159 °C |
| Cc1c(Br)c(=O)n(-c2cc(C(=O)OC(C)C)c(Cl)cc2F)c(=O)n1C | 127 to 129 °C |

| SMILES | melting point |
| --- | --- |
| Clc1ccccc1-c1nc2occn2c1-c1ccnc(N[C@H]2CN3CCC2CC3)n1 | 132 to 134 °C |
| O=C1Nc2ccccc2Nc2nc(-c3ccccc3)ncc21 | 260 to 261 °C |
| CCOC(=O)NC(=O)C(C#N)=CNNc1ccc(OC(F)F)cc1 | 144 to 146 °C |
| O=C(Nc1ccccc1)N1Cc2cccn2-c2ccsc2C1=O | 176 °C |
| Cc1c(Cl)nnc(Cl)c1C(C)(C)CCl | 56 to 58 °C |
| CCOC(=O)N1CCN(c2nc(C)nc3c2OCC(=O)N3CC(N)=O)CC1 | 225 to 227 °C |
| CC(=NOc1ccc(F)cc1)c1ccc(C(F)(F)F)cc1NS(=O)(=O)C(F)(F)F | 95 to 96 °C |
| CCN(C(=O)CN(C(=O)CNC(=O)Nc1cccc(C)c1)c1ccccc1)c1ccccc1 | 158 °C |
| O=C1NC(=O)C(CCCCc2ccc(O)cc2)O1 (stereo unspecified) | 151 to 152 °C |
| CCOC(=O)C1=Cc2cc(-c3ccc(C)cc3)ccc2SC1 | 87 °C |
| OCc1nccc2c1[nH]c1ccccc12 | 228 to 230 °C |
| CCCCCCCCCCCCCCCCCCC(CO)CC1(C)OCCO1 (stereo unspecified) | 34 to 35 °C |
| CS(=O)(=O)c1c(C#N)nn(-c2c(Cl)cc(C(F)(F)F)cc2Br)c1N | 235 to 238 °C |
| O=C(Nc1cccc(NC(=O)c2ccc(O)cc2)c1)c1ccc(O)cc1 | 250 °C |
| CC(=O)OCC1OC(n2ccc3c(C)cccc32)C(OC(C)=O)C(OC(C)=O)C1OC(C)=O (stereo unspecified) | 156 to 157 °C |
| O=C(O)CCCC/C=C(\c1cccnc1)c1ccc2c(c1)OCO2 | 90 to 91 °C |
| O=C1OC(=Cc2ccc(Cl)c([N+](=O)[O-])c2)c2ccccc21 | 198 to 204 °C |
| CCN1CCN(C(=O)c2ccc(C(=O)N3CCN(c4ncccc4NC(C)C)CC3)cc2)CC1 | 130 to 131 °C |
| CN(Cc1ccc(-c2ccc(O)c(Br)c2)cc1)C(=O)c1cn(Cc2ccccc2)c2ccccc12 | 164 to 170 °C |
| CN(C)CCNc1ccc(NCCCCN)c2c1C(=O)c1ccccc1C2=O | 88 to 90 °C |
| Nc1nc(O)c2c(CCCc3ccc(C(=O)N[C@@H](CCC(=O)O)C(=O)O)cc3)cnc-2[nH]1 | 190 to 193 °C |

Results, then the compound that gave them:

| melting point | SMILES |
| --- | --- |
| 143 to 144 °C | CCCn1c(=O)c2nc(C(C)Cc3ccc(OCC(=O)NCCN)cc3)[nH]c2n(CCC)c1=O (stereo unspecified) |
| 170 to 172 °C | O=CNc1ccccc1C1=NN(c2ccc(Cl)cc2)C(=O)C1 |
| 126 to 130 °C | CC(=O)c1ccc(C2=C(c3ccc(S(C)(=O)=O)cc3)OC3(CCCC3)C2=O)cc1 |
| 202 °C | CC(=O)NC(CC(=O)O)CN(C)C (stereo unspecified) |
| 147 to 149 °C | COC(=O)c1ccc(-c2cc(CCNC(C)=O)c3cc(OC)ccc3c2)cc1 |
| 140 to 142 °C | COC(=O)c1ccccc1C(=O)NNC(=S)Nc1ccccc1 |
| 176 to 178 °C | CC(C)OC(=O)C(C)NC(=O)C(N)(CC(=O)O)NC(=O)C(C)C (stereo unspecified) |
| 69 °C | COc1cccc(C(=O)c2ccc(C(F)(F)F)cc2)c1 |
| 249 to 252 °C | CCS(=O)(=O)Nc1cc(-c2nc[nH]c(=O)c2Cl)c(F)cc1C#N |
| 138 to 140 °C | CN(C1CCCc2ccc([N+](=O)[O-])cc21)S(C)(=O)=O (stereo unspecified) |
| 112 to 113 °C | CC(C)(C)OC(=O)CN1CCN(CC(=O)O)C1=O |
| 26 °C | C=C(C)C(=O)OCCCCCc1ccc(C(F)(F)Oc2ccc(OC(F)(F)c3ccc(CCCCCOC(=O)C(=C)C)cc3)c(C)c2)cc1 |
| > 300 °C | Clc1ccc(-c2cnc3cc4cn[nH]c4cc3n2)s1 |
| 98 °C | Cc1cc(-n2ccnc2)c2cccc(OCc3c(Cl)ccc(S(=O)(=O)N4CCC[C@H]4C(=O)N(C)CCN(C)CCCO)c3Cl)c2n1 |
| 210 to 212 °C | Cn1nc(-c2nc(C#N)c(C#N)nc2-c2ccccc2)ccc1=O |
| 253 to 255 °C | O=C(O)CCC(=O)c1ccc(NC(=O)c2ccc(F)cc2)cc1 |
| 142 to 143 °C | NC(=O)N(O)CC1=CCC(c2ccccc2)CC1 (stereo unspecified) |
| 230 °C | COc1ccccc1[C@@]1(O)[C@@H]2CNC[C@@H]2C(c2ccccc2)(c2ccccc2)C[C@@H]1O |
| 156 to 158 °C | O=C(c1cc(Br)c(O)c(Br)c1)c1c(Cc2ccccc2)oc2ccccc12 |
| 288 to 290 °C | O=C1CSc2nc(Nc3ccc(N4CCOCC4)cc3)ncc2N1 |

| melting point | SMILES |
| --- | --- |
| 228 °C | Clc1nc2cc(Br)c(Br)cc2[nH]1 |
| 171 to 174 °C | COc1ccc(NC(=S)NCCO)c(C)c1 |
| 146 to 148 °C | COc1c(Cc2ccccc2)cc(C(=O)O)c2ccccc12 |
| 108 to 109 °C | FC(F)(F)c1cccc(CN2C(=NCCCn3ccnc3)c3cccc4cccc2c34)c1 |
| 157 to 158 °C | N#Cc1cnc(N[C@H]2CC[C@H](O)CC2)c([N+](=O)[O-])c1 |
| 225 to 227 °C | NC(=O)c1sc2nccc(N3CCN(C/C=C/c4ccccc4)CC3)c2c1N |
| 227 °C | CS(=O)(=O)c1ccc(-c2oc(CO)cc(=O)c2Oc2ccc(Cl)cc2)cc1 |
| 67 to 69 °C | CCOC(=O)c1cnn(-c2ccc(Cl)cc2C(F)(F)F)c1Cl |
| 111 to 117 °C | COc1ccc(CNc2nc(C)nc(C)c2Cl)cc1OCc1ccccc1 |
| 220 to 222 °C | Nc1ncc(Cc2csc3ccccc23)c(N)n1 |
| 152 °C | COc1nc(OC)nc(Oc2ccccc2C(=O)O)n1 |
| 91 to 92 °C | CC(C)(C)OC(=O)c1ccc(N2CC(CN=[N+]=[N-])OC2=O)cc1F (stereo unspecified) |
| 211 °C | Cc1ccc(C(=O)C2=C(O)C(=O)N(c3ncc(S(=O)(=O)c4ccc([N+](=O)[O-])cc4)s3)C2c2cccnc2)cc1 (stereo unspecified) |
| 149 to 151 °C | CCN(CC)c1ccc(C2(c3ccc(N(CC)CC)cc3N(CC)CC)OC(=O)c3ccccc32)c(C)c1 (stereo unspecified) |
| 155 to 157 °C | CNS(=O)(=O)CCCn1cnc2c(N)nc3ccccc3c21 |
| 168 to 172 °C | Cc1ccc(N2C(=O)C=CC2=O)cc1N1C(=O)C=CC1=O |
| > 300 °C | Cn1c(=O)c2nc(-c3ccc(/C=C/C(=O)O)cc3)[nH]c2n(Cc2ccccc2)c1=O |
| 158 to 160 °C | N#Cc1ccc2[nH]cc(C3=CCC4(CC3)OCCO4)c2c1 |
| 50 to 51 °C | COc1ccc2c(c1)[C@H](c1ccccc1)CN(C)CC2 |
| 147 to 149 °C | CCc1cccc(C)c1CNc1cc(OC)nc(NC)c1[N+](=O)[O-] |

| melting point | SMILES |
| --- | --- |
| 93 to 94 °C | COC(=O)CCc1ccc(NC(=O)c2cc(C(C)C)c(C(C)C)o2)cc1 |
| 203 to 204 °C | CC1CN(c2ccc(C(=O)C(F)(F)F)cc2)N=C1NC(=O)C(F)(F)F (stereo unspecified) |
| 223 to 225 °C | O=C1NC(=O)C(c2ccc(Cl)c(Cl)c2)N1 (stereo unspecified) |
| > 330 °C | O=C1Nc2nnccc2C(=O)C1c1c(F)cc(F)cc1F (stereo unspecified) |
| 175 to 176 °C | O=C(Nc1ccccc1)C1=C(Nc2ccccc2)COC1=O |
| 63 to 65 °C | Cc1ccc(C)c(OCCCC(=O)O)c1 |
| 168 °C | COC(=O)C(=CN(C)C)n1ccc2ccc(-c3nccc(-c4ccccc4)n3)cc21 |
| 61.5 to 62.5 °C | Cc1ccc(C(=S)CC2CCCN(C)C2)cc1 (stereo unspecified) |
| 140 to 142 °C | CCCc1nc2c(N)nc3ccccc3c2n1CCCC(C)N(OC)C(C)=O (stereo unspecified) |
| 328 to 330 °C | Cc1cc2c(s1)c(=O)c(C(N)=O)cn2C |
| 118 to 120 °C | COc1cc2c(cc1Cl)CC(C)OC2c1ccc([N+](=O)[O-])cc1 (stereo unspecified) |
| 186 °C | CCN(CC)CCc1cccc(N2C(=O)N(c3ccc(Cl)cc3Cl)Cc3cnc(Nc4ccccc4)nc32)c1 |
| 89 to 90 °C | CCOC(=O)COc1ccc2cnn(C[C@H](C)NC(=O)OCc3ccccc3)c2c1Br |
| 126 to 128 °C | O=C(O)c1cc(Br)ccc1OCC(F)(F)F |
| 184 to 186 °C | CO/C(=C1/C(C)=C(CC(=O)O)c2cc(F)ccc21)c1ccccc1 |
| 76.1 to 77.3 °C | CCCCC(CC)C(=O)NCCCCCCCCCCCOCC(O)CNCCO (stereo unspecified) |
| 209 to 211 °C | CCc1nc2cc(/C=C/C(=O)NO)ccc2c(=O)n1CCc1ccccc1 |
| 119 to 121 °C | Nc1ccc(OCCCCN2C(=O)c3ccccc3C2=O)cc1 |
